Source: ChEMBL document CHEMBL4196011, “The lead optimization of the polyamine conjugate of flavonoid with a naphthalene motif: Synthesis and biological evaluation” (Eur J Med Chem, 2018)
The source made the active and inactive calls. The rule behind the calls is not given here.

Assays:
[1] = molecular target: c-Jun N-terminal kinase, JNK (Homo sapiens) (UniProt P45983+P53779+P45984); experiment: Induction of JNK phosphorylation in human HepG2 cells after 48 hrs by immunofluorescence staining-based high content screening assay; format: cell-based
[2] = Cytotoxicity against human QSG7701 cells up to 15 uM after 48 hrs by MTT assay; format: cell-based
[3] = system: HepG2; experiment: Induction of autophagy in human HepG2 cells assessed as upregulation of beclin1 expression at 5 uM in presence of autophagy inhibitor 3-MA by Western blot analysis; format: functional, cell-based
[4] = system: HT-29; experiment: Antiproliferative activity against human HT-29 cells after 48 hrs by MTT assay; format: functional, cell-based; conditions: HT-29, 48 h
[5] = system: H22; experiment: Antitumor activity against […] xenografted in Kunming mouse assessed as tumor growth inhibition at 30 mg/kg, iv for 7 consecutive days measured on day 16; format: functional; conditions: 384 h, read-out: TGI
[6] = system: HepG2; experiment: Antiproliferative activity against human HepG2 cells after 48 hrs by MTT assay; format: functional, cell-based; conditions: HepG2, 48 h
[7] = system: HepG2; experiment: Induction of apoptosis in human HepG2 cells assessed as late apoptotic cells at 7.5 uM after 8 hrs by Annexin V-FITC/propidium iodide staining-based flow cytometry (reference value: 0.88%); format: functional
[8] = system: HepG2; experiment: Induction of apoptosis in human HepG2 cells assessed as late apoptotic cells at 2.5 uM after 8 hrs by Annexin V-FITC/propidium iodide staining-based flow cytometry (reference value: 0.88%); format: functional
[9] = system: HepG2; experiment: Induction of apoptosis in human HepG2 cells assessed as early apoptotic cells at 2.5 uM after 24 hrs by Annexin V-FITC/propidium iodide staining-based flow cytometry (reference value: 2.07%); format: functional
[10] = Drug localization in mitochondria of human HepG2 cells at 7.5 uM after 8 hrs by MitoTracker Green dye-based confocal fluorescence microscopic analysis; format: ADME; conditions: hepg2, 8 h
[11] = system: Mus musculus; experiment: Toxicity in Kunming mouse xenografted with […] H22 cells assessed as effect on liver weight index at 30 mg/kg, iv administered for 7 consecutive days; format: organism-based; conditions: in vivo
[12] = system: K562; experiment: Antiproliferative activity against human K562 cells after 48 hrs by MTT assay; format: functional, cell-based; conditions: K562, 48 h
[13] = system: HepG2; experiment: Induction of apoptosis in human HepG2 cells assessed as late apoptotic cells at 7.5 uM after 24 hrs by Annexin V-FITC/propidium iodide staining-based flow cytometry (reference value: 0.88%); format: functional
[14] = system: HepG2; experiment: Induction of autophagy in human HepG2 cells assessed as increase in LC3-2 expression at 5 uM by Western blot analysis; format: functional, cell-based
[15] = Drug localization in endoplasmic reticulum of human HepG2 cells at 7.5 uM after 8 hrs by ER-Tracker Red dye-based confocal fluorescence microscopic analysis; format: ADME, subcellular; conditions: hepg2, 8 h
[16] = system: HepG2; experiment: Induction of apoptosis in human HepG2 cells assessed as necrotic cells at 2.5 uM after 8 hrs by Annexin V-FITC/propidium iodide staining-based flow cytometry (reference value: 0.40%); format: functional
[17] = system: HepG2; experiment: Induction of autophagy in human HepG2 cells assessed as formation of autolysosomes after 48 hrs by MDC staining-based assay; format: functional, cell-based
[18] = system: HepG2; experiment: Induction of apoptosis in human HepG2 cells assessed as necrotic cells at 2.5 uM after 48 hrs by Annexin V-FITC/propidium iodide staining-based flow cytometry (reference value: 0.08%); format: functional
[19] = system: HepG2; experiment: Induction of ROS generation in human HepG2 cells after 48 hrs by DCFH-DA staining-based fluorescence assay; format: functional, cell-based
[20] = system: HepG2; experiment: Induction of apoptosis in human HepG2 cells assessed as necrotic cells at 5 uM after 36 hrs by Annexin V-FITC/propidium iodide staining-based flow cytometry (reference value: 0.24%); format: functional
[21] = system: HepG2; experiment: Induction of apoptosis in human HepG2 cells assessed as increase in cleaved PARP1 levels after 48 hrs by immunofluorescence staining-based high content screening assay; format: functional, cell-based
[22] = system: HepG2; experiment: Induction of apoptosis in human HepG2 cells assessed as necrotic cells at 7.5 uM after 36 hrs by Annexin V-FITC/propidium iodide staining-based flow cytometry (reference value: 0.24%); format: functional
[23] = system: HepG2; experiment: Induction of apoptosis in human HepG2 cells assessed as late apoptotic cells at 2.5 uM after 36 hrs by Annexin V-FITC/propidium iodide staining-based flow cytometry (reference value: 1.08%); format: functional
[24] = system: HepG2; experiment: Induction of apoptosis in human HepG2 cells assessed as viable cells at 2.5 uM after 48 hrs by Annexin V-FITC/propidium iodide staining-based flow cytometry (reference value: 96.67%); format: functional; conditions: HepG2, 48 h, read-out: Activity
[25] = Drug uptake in human HepG2 cells assessed as PAT-mediated compound uptake at 10 uM after 8 hrs in presence of spermidine by HCS analysis; format: ADME, cell-based; conditions: hepg2, 8 h
[26] = system: HepG2; experiment: Induction of autophagy in human HepG2 cells assessed as upregulation of beclin1 expression at 5 uM by Western blot analysis; format: functional, cell-based
[27] = system: HepG2; experiment: Induction of apoptosis in human HepG2 cells assessed as late apoptotic cells at 5 uM after 36 hrs by Annexin V-FITC/propidium iodide staining-based flow cytometry (reference value: 1.08%); format: functional
[28] = system: HepG2; experiment: Induction of apoptosis in human HepG2 cells assessed as late apoptotic cells at 7.5 uM after 48 hrs by Annexin V-FITC/propidium iodide staining-based flow cytometry (reference value: 0.95%); format: functional
[29] = system: HepG2; experiment: Induction of apoptosis in human HepG2 cells assessed as late apoptotic cells at 5 uM after 24 hrs by Annexin V-FITC/propidium iodide staining-based flow cytometry (reference value: 0.88%); format: functional
[30] = system: HepG2; experiment: Induction of apoptosis in human HepG2 cells assessed as increase in p53 protein expression after 48 hrs by immunofluorescence staining-based high content screening assay; format: functional, cell-based
[31] = system: HepG2; experiment: Induction of apoptosis in human HepG2 cells assessed as early apoptotic cells at 2.5 uM after 36 hrs by Annexin V-FITC/propidium iodide staining-based flow cytometry (reference value: 2.08%); format: functional
[32] = system: HepG2; experiment: Induction of apoptosis in human HepG2 cells assessed as early apoptotic cells at 7.5 uM after 8 hrs by Annexin V-FITC/propidium iodide staining-based flow cytometry (reference value: 1.29%); format: functional
[33] = system: Mus musculus; experiment: Toxicity in Kunming mouse xenografted with […] H22 cells assessed as effect on body weight at 30 mg/kg, iv administered for 7 consecutive days; format: organism-based; conditions: in vivo
[34] = system: HepG2; experiment: Induction of apoptosis in human HepG2 cells assessed as viable cells at 2.5 uM after 8 hrs by Annexin V-FITC/propidium iodide staining-based flow cytometry (reference value: 97.43%); format: functional; conditions: HepG2, 8 h, read-out: Activity
[35] = system: H22; experiment: Antitumor activity against […] xenografted in Kunming mouse assessed as tumor growth inhibition at 40 mg/kg, iv for 7 consecutive days measured on day 16; format: functional; conditions: 384 h, read-out: TGI
[36] = system: HepG2; experiment: Induction of apoptosis in human HepG2 cells assessed as caspase 3 activation after 48 hrs by immunofluorescence staining-based high content screening assay; format: functional, cell-based
[37] = system: HCT-116; experiment: Antiproliferative activity against human HCT116 cells after 48 hrs by MTT assay; format: functional, cell-based; conditions: HCT-116, 48 h
[38] = system: HepG2; experiment: Induction of apoptosis in human HepG2 cells assessed as early apoptotic cells at 2.5 uM after 8 hrs by Annexin V-FITC/propidium iodide staining-based flow cytometry (reference value: 1.29%); format: functional

COc1ccc2cc(-c3oc4c(CNCCCCN)cccc4c(=O)c3OC)ccc2c1Br.Cl.Cl
Activity [1]: Dose-dependent effect
Activity [2]: Non-Toxic
Activity [3]: inactive
IC50 [4]: 14.7 µM
inhibition in vivo at 30 mg/kg [5]: 63.6%
IC50 [6]: 7.1 µM
Activity [7]: 3.38%
Activity [8]: 1.52%
Activity [9]: 10.46%
Drug uptake [10]: Active
Activity [11]: Non-Toxic
IC50 [12]: 13.4 µM
Activity [13]: 9.48%
Activity [14]: Active
Drug uptake [15]: Active
Activity [16]: 0.3%
Activity [17]: Dose-dependent effect
Activity [18]: 0.29%
Activity [19]: Dose-dependent effect
Activity [20]: 0.09%
Activity [21]: Dose-dependent effect
Activity [22]: 0.26%
Activity [23]: 5.89%
viability at 2.5 µM [24]: 74.1%
Drug uptake [25]: Not Active
Activity [26]: Active
Activity [27]: 2.15%
Activity [28]: 31.22%
Activity [29]: 2.03%
Activity [30]: Dose-dependent effect
Activity [31]: 6.24%
Activity [32]: 18.1%
Activity [33]: Non-Toxic
viability at 2.5 µM [34]: 96.1%
inhibition in vivo at 40 mg/kg [35]: 69.1%
Activity [36]: Dose-dependent effect
IC50 [37]: 15.1 µM
Activity [38]: 2.06%
